From paper PMC8071534, “Discovery of Potential, Dual-Active Histamine H3 Receptor Ligands with Combined Antioxidant Properties” (Molecules, 2021)
“And” between values parts separate entries of the source, which are not always exact repeats. Equal values may be shown once. Read-outs that look alike come from different tables or passages of the source.

Assays:
[1] = biological target: T1, human recombinant histamine H3R stably expressed in HEK-293 cells (Homo sapiens, UniProt Q9Y5N1); assay: [3H]Nα-methylhistamine hH3R displacement (radioligand depletion) binding assay; conditions: mean [95% confidence interval]
T1 construct: HEK-293 cells stably expressing the recombinant full length hH3R; expressed in transfected cells; crude membrane preparations
From the text: Unbound radioligand was removed by three washing steps with ice-cold water.

[2] = DPPH free radical scavenging assay; conditions: for DPPH Assay (λ = 517 nm) Absorbance Decrease in 10^−4 mol/L Concentration [%] Mean ± SEM: 30 min incubation, vs solvent + reaction mixture blank
Description: (§1) In order to determine the possible antioxidant properties, selected compounds were tested in 2,2-diphenyl-1-picrylhydrazyl (DPPH) and ferric reducing antioxidant power (FRAP) assay with ascorbic acid as a reference compound (Table 2). For details, please refer to the Materials and Methods Section. Graphical representation of tests results can be found in Supplementary Material.
(§2) Antioxidant properties of compounds were tested in vitro in two different assays: the 2,2-diphenyl-1-picrylhydrazyl (DPPH) assay and the FeCl3 reduction activity assay (FRAP, ferric reducing antioxidant power). The tested compounds and ascorbic acid were dissolved in DMSO at the 10^−2 mol/L concentration, and in ethanol at the concentration of 10^−4 mol/L respectively. Moreover, 30% and 50% ascorbic acid activity cut-off for DPPH and FRAP assays respectively were set ad hoc.
DPPH is a molecule containing a stable free radical. The reduction of DPPH (purple) in ethanol solution takes place in the presence of a hydrogen-donating antioxidant due to the formation of the non-radical form of DPPH-H (yellow). This transformation results in color change from purple to yellow, which can be measured spectrophotometrically. Thus, the decrease in absorbance is proportional to the decrease in concentration of DPPH (free radical) and discoloration of reaction mixture indicates the scavenging of free radicals by a tested antioxidant.
In order to determine antioxidant capacity, 20 μL of the compound solutions (dissolved in 96% ethanol) was mixed with 180 μL of 0.3 mM ethanolic DPPH solution. The change in the absorbance was detected at 517 nm after 30 min of incubation. Results were expressed as percentage decrease in absorbance of the tested sample, compared to the sample containing the solvent + reaction mixture (blank with maximum concentration of the DPPH radical). L-ascorbic acid was used as a reference compound. Calculations were made using MS Excel, from the proportion where the change of absorbance in the vitamin C (vit. C) group was treated as 100%, according to Equation (1):(1) % activity of Vit.C=ΔAb×100/ΔAVit. C
Calculation of % Vit. C activity: ΔAb -the change in the absorbance of the test sample and ΔAVit. C is change in the absorbance of reference sample, or with vit. C.

[3] = FRAP (ferric reducing antioxidant power) assay; conditions: 10 min incubation, vs sample containing solvent
Description: as §1, §2
A modified method of Benzie and Strain [38] was adopted for the FRAP assay. The stock solutions included 300 mM acetate buffer (3.1 g of C2H3NaO2 × 3H2O and 16 mL of C2H4O2), pH 3.6, 10 mM TPTZ (2,4,6-tripyridyl-s-triazine) solution in 40 mM HCl, and 20 mM FeCl3 × 6H2O solution. The working solution was prepared by mixing 10 parts of acetate buffer, 1 part of TPTZ solution, and 1 part of FeCl3 × 6H2O solution. A portion of 180 μL of the FRAP solution was mixed with 20 μL of the tested compound solution and incubated at room temperature for 10 min in the dark. Readings of the color product (ferrous tripyridyl triazine complex) were then taken at 593 nm against ethanol. Results are expressed as an increase in absorbance of the test sample compared to a sample containing the solvent. L-ascorbic acid was used as reference compound.

hH3R = conditions: reference ligands, Figure 1; cited from earlier work
hσ1R = conditions: Figure 1; cited from earlier work
rσ2R = conditions: Figure 1; cited from earlier work
rVAChT = conditions: Figure 1; cited from earlier work
hBuChE = conditions: Figure 1; cited from earlier work
[4] = biological target: T1, human recombinant histamine H3R stably expressed in HEK-293 cells; parameters: method as in PMID 21237145, PMID 29960729; conditions: radioligand of the binding assay; read-out: KD of the radioligand at hH3R; cited from earlier work
rH3R = conditions: Figure 1; cited from earlier work
[5] = hH3R Ki [nM] x¯ [CI 95%], [3H]Nα-methylhistamine displacement, HEK-293 membranes
[6] = [3H]Nα-methylhistamine displacement, HEK-293 membranes, read-out: hH3R Ki [nM] x¯ [CI 95%]
[7] = hH3R Ki [nM] x¯ [CI 95%], values obtained using 0.025% HCl in binding buffer

T1 sequence (Q9Y5N1 whole entry): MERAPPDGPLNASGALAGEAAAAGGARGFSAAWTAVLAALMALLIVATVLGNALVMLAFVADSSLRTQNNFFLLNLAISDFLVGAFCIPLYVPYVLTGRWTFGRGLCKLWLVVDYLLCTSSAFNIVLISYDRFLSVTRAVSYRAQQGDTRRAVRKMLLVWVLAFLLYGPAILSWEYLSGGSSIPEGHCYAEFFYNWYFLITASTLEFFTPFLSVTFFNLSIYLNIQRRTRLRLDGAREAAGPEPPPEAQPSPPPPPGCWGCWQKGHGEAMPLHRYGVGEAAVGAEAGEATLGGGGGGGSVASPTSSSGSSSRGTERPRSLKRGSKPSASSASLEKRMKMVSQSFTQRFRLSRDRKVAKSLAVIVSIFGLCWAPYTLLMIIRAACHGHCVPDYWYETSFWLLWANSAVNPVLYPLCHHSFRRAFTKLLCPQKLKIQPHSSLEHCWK

Structure (SMILES) | Ki [1, 5] [nM] | DPPH Assay (λ = 517 nm) Absorbance Decrease in 10^−4 mol/L Concentration [%] Mean ± SEM [2] [%] | FRAP Assay (λ = 593 nm) Absorbance Increase in 10^−4 mol/L Concentration [%] Mean ± SEM [3] [%] | melting point [°C] | Ki [1, 6] [nM] | further results
COc1cccc(N2CCN(CCCOc3ccc(C(=O)c4ccc(F)cc4)cc3)CC2)c1.O=C(O)C(=O)O [Compound 18, (4-Fluorophenyl)(4-(3-(4-(3-methoxyphenyl)piperazin-1-yl)propoxy)phenyl)methanone hydrogen oxalate] | 715 | 6.35 ± 0.55 | 29.73 ± 0.39 | 127.4 to 129.7 | – | –
O=C(O)C(=O)O.O=C(c1ccc(F)cc1)c1ccc(OCCCN2CCN(C(=O)C3CC3)CC2)cc1 [Compound 9, (4-(3-(4-(Cyclopropanecarbonyl)piperazin-1-yl)propoxy)phenyl)(4-fluorophenyl)methanone hydrogen oxalate] | 1670 | 7.70 ± 0.41 | 1.75 ± 0.22 | 181.1 to 182.7 | – | –
CC(=O)c1ccc(N2CCN(CCCOc3ccc(C(=O)c4ccccc4)cc3)CC2)cc1 [Compound 10, 1-(4-(4-(3-(4-Benzoylphenoxy)propyl)piperazin-1-yl)phenyl)ethan-1-one] | – | 2.44 ± 0.97 | 3.66 ± 0.59 | 148.4 to 151.4 | 633 | –
CC(=O)N1CCN(CCCOc2ccc(C(=O)c3ccc(Cl)cc3)cc2)CC1 [Compound 5, 1-(4-(3-(4-(4-Chlorobenzoyl)phenoxy)propyl)piperazin-1-yl)ethan-1-one] | – | – | – | – | 1260 | –
CC(=O)N1CCN(CCCOc2ccc(C(=O)c3ccc(F)cc3)cc2)CC1.O=C(O)C(=O)O [Compound 6, 1-(4-(3-(4-(4-Fluorobenzoyl)phenoxy)propyl)piperazin-1-yl)ethan-1-one hydrogen oxalate] | 1100 | 8.82 ± 0.12 | 0.79 ± 0.39 | 171.3 to 173.1 | – | –
O=C(O)C(=O)O.O=C(c1ccccc1)c1ccc(OCCCN2CCN(C(=O)C3CC3)CC2)cc1 [Compound 7, (4-(3-(4-Benzoylphenoxy)propyl)piperazin-1-yl)(cyclopropyl)methanone hydrogen oxalate] | 1330 | 6.23 ± 0.53 | 1.43 ± 0.32 | 167.3 to 168.6 | – | –
COc1cccc(N2CCN(CCCOc3ccc(C(=O)c4ccc(Cl)cc4)cc3)CC2)c1.O=C(O)C(=O)O [Compound 17, (4-Chlorophenyl)(4-(3-(4-(3-methoxyphenyl)piperazin-1-yl)propoxy)phenyl)methanone hydrogen oxalate] | – | 4.88 ± 0.18 | 40.86 ± 0.98 | 100.2 to 102.4 | – | Ki [1, 7]: 518 nM and ~500 nM
C#CCN(C)Cc1cc2cc(OCCCN3CCCCC3)ccc2n1C [Contilisant] | – | – | – | – | – | Ki (hH3R): 10.8 nM; Ki (hσ1R): 65.2 nM; Ki (rσ2R): 326 nM; Ki (rVAChT): 46.3 nM; IC50 (hBuChE): 1690 nM
O=C1O[C@H]([C@@H](O)CO)C(O)=C1O [Ascorbic acid, L-ascorbic acid, reference compound] | – | 20.52 ± 0.51 | 344.20 ± 4.65 | – | – | –
O=C(c1ccc(Cl)cc1)c1ccc(OCCCN2CCN(c3ccc([N+](=O)[O-])cc3)CC2)cc1 [Compound 14, (4-Chlorophenyl)(4-(3-(4-(4-nitrophenyl)piperazin-1-yl)propoxy)phenyl)methanone] | – | 6.31 ± 1.14 | 0.22 ± 0.16 | 154.5 to 155.8 | 622 | –
O=C(O)C(=O)O.O=C(c1ccc(Cl)cc1)c1ccc(OCCCN2CCN(C(=O)C3CC3)CC2)cc1 [Compound 8, (4-(3-(4-(4-Chlorobenzoyl)phenoxy)propyl)piperazin-1-yl)(cyclopropyl)methanone hydrogen oxalate] | > 1000 | 6.79 ± 0.51 | 0.48 ± 0.48 | 176.9 to 179.2 | – | –
O=C(c1ccc(F)cc1)c1ccc(OCCCN2CCN(c3ccc([N+](=O)[O-])cc3)CC2)cc1 [Compound 15, (4-Fluorophenyl)(4-(3-(4-(4-nitrophenyl)piperazin-1-yl)propoxy)phenyl)methanone] | – | – | – | 173.3 to 174.2 | 580 | –
CNCCc1cnc[nH]1 [[^3H]N^α-methylhistamine] | – | – | – | – | – | Kd [4]: 3.08 nM
CC(=O)c1ccc(N2CCN(CCCOc3ccc(C(=O)c4ccc(F)cc4)cc3)CC2)cc1 [Compound 12, 1-(4-(4-(3-(4-(4-Fluorobenzoyl)phenoxy)propyl)piperazin-1-yl)phenyl)ethan-1-one] | – | 4.42 ± 0.33 | 2.70 ± 1.15 | 162 to 163.6 | 1010 | –
CC(=O)c1ccc(N2CCN(CCCOc3ccc(C(=O)c4ccc(Cl)cc4)cc3)CC2)cc1 [Compound 11, 1-(4-(4-(3-(4-(4-Chlorobenzoyl)phenoxy)propyl)piperazin-1-yl)phenyl)ethan-1-one] | – | 3.33 ± 0.45 | 3.34 ± 0.22 | 180.6 to 183.4 | > 1000 | –
Cn1nc(N2CCC(OC(=O)N3CCN(C4CCC4)CC3)CC2)ccc1=O [LML134] | – | – | – | – | – | Ki (hH3R): 12 nM
O=C(c1ccccc1)c1ccc(OCCCN2CCN(c3ccc([N+](=O)[O-])cc3)CC2)cc1 [Compound 13, (4-(3-(4-(4-Nitrophenyl)piperazin-1-yl)propoxy)phenyl)(phenyl)methanone] | – | – | – | 182.3 to 183.9 | > 1000 | –
COc1cccc(N2CCN(CCCOc3ccc(C(=O)c4ccccc4)cc3)CC2)c1.O=C(O)C(=O)O [Compound 16, (4-(3-(4-(3-Methoxyphenyl)piperazin-1-yl)propoxy)phenyl)(phenyl)methanone hydrogen oxalate] | – | 12.37 ± 1.31 | 32.91 ± 0.81 | 143.6 to 146.1 | – | Ki [1, 7]: 592 nM; DPPH assay: % of ascorbic acid activity ([2]; compound 10^−4 mol/L vs ascorbic acid 10^−4 mol/L, calculated from Table 2): 60.28% and 50–60%
Clc1ccc(CCCOCCCN2CCCCC2)cc1 [Pitolisant, pitolisant] | – | – | – | – | – | Ki (rH3R): 17 nM
CC(=O)N1CCN(CCCOc2ccc(C(=O)c3ccccc3)cc2)CC1.O=C(O)C(=O)O [Compound 4, 1-(4-(3-(4-Benzoylphenoxy)propyl)piperazin-1-yl)ethan-1-one hydrogen oxalate] | 3650 | – | – | 136.8 to 140 | – | –
